We go through 94 molecules from PubChem BioAssay AID489024 (Sanford-Burnham Center for Chemical Genomics, 2010).

Active and inactive are the calls of the source.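 The calls were made as follows: active = compounds whose mean EC50, the dose giving half the maximal reporter activation, is at or below a set limit; inactive = the rest.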

The assay has as its target CHO-CHOP luciferase reporter, UPR activation, luminescence. Briefly: activators of PERK-eIF2a-CHOP UPR arm, confirmation, CHO-CHOP cells, luciferase luminescence (AID 489024).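 Also: compounds added alone to reporter cells with no tunicamycin stress co-treatment.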

A word on the EC50: it is the concentration that produces a half-maximal response. Consider `O=C(C=C=Nc1ccccc1)C(=O)N=C=Cc1ccccc1`, for which the EC50 was 5.75 µM. The figure for `Oc1[nH]c2ccc(Br)cc2c1N=NC(=S)N1CCOCC1` is 4.28 µM; for `Oc1c(Cl)cc(CN2CCOCC2)c2cccnc12` it is 5.93 µM; for `CCCCCOc1ccc(N2C(=O)CC(N(O)c3ccccc3)C2=O)cc1` (centres undefined) it is 12.3 µM. Regarding `CC(C)(C)c1ccc(/C=C(\c2nc3ccccc3[nH]2)S(=O)(=O)c2ccccc2)cc1`, the EC50 is 7.17 µM. Regarding `O=C(/C(=N/N=C/c1ccc(O)c(O)c1)c1ccccc1)c1ccccc1`, the EC50 was 7.97 µM. As for `Cc1cc(C(=O)CCl)c(C)n1CC1COc2ccccc2O1` (centres undefined), the half-maximal effective concentration (EC50) is 8.22 µM. The figure for `O=C(/C=C/c1ccc(O)c(O)c1)c1ccccc1O` is 4.64 µM; for `Oc1c(CN2CCCCC2)cc(Br)c2cccnc12` it is 10.6 µM. With `CCc1cccc2c(C(=O)CCl)c[nH]c12`, the 50% effective concentration (EC50) is 15.7 µM.

Consider `O=C(Oc1c(CN2CCOCC2)cc(Cl)c2cccnc12)c1ccc(F)cc1`, for which the EC50 entry was “inactive”. The figure for `Cc1ccccc1/C=C/C(=O)c1ccc([N+](=O)[O-])o1` is 9.86 µM. With `O=C(N/N=C/c1ccc(O)c(O)c1)NC12CC3CC(CC(C3)C1)C2` the figure was 3.34 µM.

For the molecule `CN(C)C(=S)N=Nc1[nH]c2ccccc2c1O`, the EC50 was 6.88 µM. For `O=C1C(CSCc2ccccc2)NC(=S)N1c1ccccc1` (centres undefined), the EC50 entry was “inactive”. `Cc1ccc(CN2CCN(/N=C/c3ccc(O)c(O)c3)CC2)cc1`: the EC50 is 3.64 µM. The figure for `COC(=O)c1c(NC(=O)c2ccc([N+](=O)[O-])o2)sc2c1CCN(C(C)C)C2` is 1.76 µM; for `Oc1c(Cl)cc(CN2CCCCC2)c2cccnc12` it is 15.2 µM; for `O=C(NCCc1ccc(F)cc1)c1coc(=O)c(Br)c1` it is 9.53 µM. Turning to `O=C(Nc1cccc(-c2nc3cccnc3s2)c1)C1c2ccccc2Oc2ccccc21`, the EC50 is 6.89 µM. With `CN(/N=C\c1ccc(O)c(O)c1)c1nc(-c2ccccc2)cc(-c2ccccc2)n1` the figure was 1.32 µM; with `O=C(N/N=C/c1ccccn1)c1cc([N+](=O)[O-])cc([N+](=O)[O-])c1`, “inactive”.

As to `COCCN=c1scc(-c2cccs2)n1/N=C/c1ccc(O)c(O)c1O`, the EC50 result was “inactive”. With `CC1=CC(=O)C(C(C)C)=C/C1=N/OC(=O)c1cccc([N+](=O)[O-])c1`, the EC50 was > 80 µM (inactive).

As to `O=C1NC(=O)N(Cc2ccccc2Cl)C(=O)/C1=C/c1cccs1`, the EC50 is 15.9 µM.

For the molecule `Oc1ccc(/C=N/Nc2ccc(C(F)(F)F)cn2)cc1O`, the EC50 was 5.89 µM. With `COc1ccc(N2C(=O)/C(=C/C=C/c3ccccc3[N+](=O)[O-])C(=O)NC2=S)cc1` the figure was > 80 µM (inactive); with `O=S(=O)(Nc1cccc2cccnc12)c1ccccc1`, 4.18 µM; with `Cc1ccc(NC(=O)c2ccc([N+](=O)[O-])o2)cc1S(=O)(=O)N1CCOCC1`, 11.8 µM. With `Oc1ccc(/C=N/Nc2cc(N3CCOCC3)nc(N3CCOCC3)n2)cc1O` the figure was > 80 µM (inactive); with `CC(=O)/C(=N\Nc1ccc(Cl)cc1Cl)Sc1cccc2cccnc12`, 3.26 µM; with `CCc1cc(C(=O)c2ccc(C)cc2)c(NC(=O)CCl)s1`, 13.5 µM. As for `O=C(/C=C/c1cccnc1)c1ccc(NC(=O)c2cccc(Br)c2)cc1`, the EC50 result was “inactive”. The figure for `OCCNc1nc(Nc2ccc(Br)cc2)nc2ccccc12` is 8.18 µM. In the case of `Cn1c(=O)c2c(SCC(=O)Nc3ccccc3F)nc(-c3ccccc3F)nc2n(C)c1=O`, the EC50 is 12.6 µM.

In the case of `CCCCOC(=O)/C=C\C(=O)NC(N)=O`, the EC50 is 13.8 µM. With `Cc1ccc(Sc2c([N+](=O)[O-])c(=O)n(C)c3ccccc23)cc1` the figure was > 80 µM (inactive); with `O=C(Cn1cc(/C=C\[N+](=O)[O-])c2ccccc21)Nc1ccccc1`, 7.5 µM.

For `COc1cc(SC#N)ccc1N=Cc1c(C)[nH]n(-c2ccc(Cl)cc2)c1=O`, the 50% effective concentration (EC50) is 11.9 µM. As for `COc1cc(CNc2ccc3[nH]c(=O)[nH]c3c2)cc(Br)c1OCc1ccccc1F`, the EC50 was > 80 µM (inactive). The figure for `N#CC1=C(N)OC2=C(CC/C2=C\c2ccccc2)C1c1ccccc1` (centres undefined) is 6.51 µM. With `CCOc1ccc(N2C(=O)/C(=C\c3cccs3)C(=O)NC2=S)cc1` the figure was 8.68 µM. The figure for `O=C(Oc1ccccc1/C=C\C(=O)c1cc2ccccc2o1)c1ccccc1` is 12.9 µM; for `O=C(Nc1nc(-c2ccccn2)cs1)c1ccc(Cl)s1` it is 6.11 µM; for `CCCN1Cc2cccc(C(=O)Nc3ccc(-c4nc5ccccc5[nH]4)cc3)c2C1=O` it is > 80 µM (inactive). For the molecule `Cc1cc(C)nc(SCc2ccc(C(=O)N/N=C/c3cccc(O)c3O)cc2)n1`, the EC50 is 10.1 µM. As to `Cc1cccnc1Nc1nc(-c2ccccn2)cs1`, the EC50 is 0.64 µM. With `CC1=NN(c2cccc(C(=O)O)c2)C(=O)/C1=C\C=C/c1ccccc1` the figure was 11.7 µM; with `O=C(Nc1ccc(O)c2c(=O)cc(-c3cccc(Cl)c3)oc12)c1ccccc1Cl`, “inactive”; with `O=C(N/N=C(\c1ccccc1)c1ccccn1)c1cccc([N+](=O)[O-])c1`, 7.44 µM. With `COc1cc([N+](=O)[O-])cc(/C=N/NC(=O)c2ccc(NC(=O)c3ccc(C)cc3)cc2)c1O` the figure was 12.3 µM; with `COc1ccc(C(=O)C(CN2CCCC2)c2ccccc2)cc1` (centres undefined), 13.9 µM. With `CN(C)CC(C(=O)c1ccccc1)c1ccccc1` (centres undefined) the figure was 6.77 µM; with `C/C(=N\Nc1ncnc2sc(C)c(C)c12)c1ccccn1`, 5.59 µM. Turning to `Cc1ccc(-c2nc(SCC(=O)Nc3cc(C)on3)c3c(=O)n(C)c(=O)n(C)c3n2)cc1`, the EC50 was > 80 µM (inactive). With `COc1ccc(CNC[C@@H](CCCCN(C)Cc2ccc(OC)cc2)N2C[C@H](c3ccccc3)N(CCc3ccc(Cl)c(Cl)c3)C(=O)C2=O)cc1` the figure was 7.73 µM. With `O=C(Nc1ccc(Cl)cc1)/C(=C/c1cccc(O)c1)c1nc2ccccc2s1` the figure was > 80 µM (inactive); with `Clc1ccc(-c2ccc(/C=N/Nc3nncc(-c4ccccc4)n3)o2)cc1`, 15.6 µM; with `COc1ccc(C(=O)Sc2ccc(Cl)cc2)cc1OC`, 9.38 µM. In the case of `O=C(C#Cc1ccccc1)c1cccc([N+](=O)[O-])c1`, the EC50 is 7.41 µM. The figure for `Cc1ccc2nc(-c3ccc(NC(=S)NC4CC(C)(C)NC(C)(C)C4)cc3)sc2c1` is 6.95 µM.

Consider `N#C/C(=C\c1ccc(OCc2ccccc2)cc1)C(=O)Nc1nc2c(s1)CCN(Cc1ccccc1)C2`, for which the EC50 result was “inactive”. Regarding `CCOc1ccc(NC(=S)NC(=O)/C=C/c2ccc(OC)c(OC)c2)c([N+](=O)[O-])c1`, the EC50 was > 80 µM (inactive).

With `CCn1c(O)c(C2=c3ccccc3=NC2=O)c2cc(Br)ccc21`, the EC50 was 15.4 µM. Take `S=C(Nc1ccccc1)Nc1nccs1`: the EC50 is 17.5 µM. On to `O=[N+]([O-])c1ccc(N/N=C/c2cccc(O)c2O)c(S(=O)(=O)N2CCOCC2)c1`, for which the EC50 is 6.53 µM.

For the molecule `O=C(Nc1ccc(C(F)(F)F)cc1)c1cc(-c2cccnc2)nc2ccc(Br)cc12`, the EC50 was 8.66 µM. For `O=C(NCc1ccccc1Br)c1cccc2c1C(=O)c1ccc(-c3ccc(OC(F)(F)F)cc3)cc1S2(=O)=O`, the EC50 is 12.7 µM. In the case of `COc1cc(NC(=O)c2cncc(-c3ccc(C#N)cc3)c2)cc(C(=O)Nc2cccc(C(F)(F)F)c2)c1`, the EC50 result was “inactive”. With `COc1ccc(N=C2S/C(=C\c3ccc(N4CCOCC4)o3)C(=O)N2CCc2c[nH]c3ccccc23)cc1` the figure was 18.4 µM; with `Cc1ccc(/C=C2\CCC3=C2OC(N)=C(C#N)C3c2ccc(C)cc2)cc1` (centres undefined), 4.55 µM. With `O=C1Nc2ccccc2/C1=C/C(=O)c1cccs1` the figure was 14.4 µM; with `Cc1ccc(N2C(=O)NC(=O)/C(=C/c3cnn(-c4ccc(C)cc4)c3)C2=O)cc1`, 16.9 µM; with `CCOC(=O)C1CCN(Cc2ccc(O)c3ncccc23)CC1`, 2.74 µM. With `CC(C)C(=O)N1CCN(c2ccc(NC(=O)c3ccc([N+](=O)[O-])o3)cc2)CC1` the figure was 1.64 µM; with `O=C1C=CC(=O)N1c1ccc(N2CCCCC2)cc1`, > 80 µM (inactive). On to `O=C(N/N=C\c1cc2c(cc1Cl)OCO2)c1ccc(Br)s1`, for which the EC50 was > 80 µM (inactive). `CCOC(=O)c1cnc(Nc2nc3ccccc3o2)nc1CSC(=S)N(CC)CC`: the EC50 is 0.91 µM. With `COc1ccc(/C=C2\CN(Cc3ccccc3)C/C(=C\c3ccc(OC)c(O)c3)C2=O)cc1O`, the EC50 was 2.75 µM. The figure for `CN1C(=O)NC(=O)/C(=C\C=C\c2ccccc2[N+](=O)[O-])C1=O` is 10.4 µM; for `CC(=O)c1cccc(N=Cc2c(O)c3ccccc3oc2=O)c1` it is 9.66 µM. For `Cc1ccc(-c2nn(-c3ccccc3)cc2C=C2C(=O)CC(C)(C)CC2=O)cc1`, the EC50 is 13.2 µM.

`Cc1cccc(C)c1NC(=O)c1nc(S(=O)(=O)Cc2ccccc2)ncc1Cl`: the EC50 was 12.3 µM. With `N=c1c(-c2nc3ccccc3[nH]2)cc(C(=O)c2ccco2)nn1-c1ccccc1` the figure was 15.2 µM.

With `CN(C)S(=O)(=O)c1cccc(NC(=O)CSc2cccc3cccnc23)c1`, the EC50 is 7.59 µM. Consider `Cc1cccc(/C=C/C(=O)c2ccc([N+](=O)[O-])o2)c1`, for which the EC50 is 7.44 µM. The figure for `COC(=O)[C@@H]1[C@@H](C#N)C2(c3ccccc3-c3ccccc32)N(c2ccc(Cl)cc2)N1C#N` is 13 µM; for `O=C(COC(=O)c1ccccc1C(=O)c1ccc(Cl)c([N+](=O)[O-])c1)NC1CCCCCC1` it is > 80 µM (inactive). With `CCOc1cc(/C=C2/C(=N)N3C=CSC3=NC2=O)ccc1OCCCOc1ccccc1C` the entry was “inactive”; with `COc1ccc(NS(=O)(=O)c2ccc3ccccc3c2)c2ncccc12`, 9.28 µM; with `O=C(COc1ccc(/C=N/NC(=O)c2cc3ccccc3o2)cc1Br)Nc1ccccc1`, 3.83 µM. With `COc1ccc2cc1Oc1ccc(cc1)CC1c3c(cc(OC)c4c3Oc3cc5c(cc3O4)CCNC5C2)CCN1C` (centres undefined) the figure was > 80 µM (inactive); with `O=[N+]([O-])/C=C\c1ccc(N2CCOCC2)cc1`, 17.5 µM. As for `COC(=O)c1cc(=O)n(Cc2ccco2)c(=Nc2ccc(F)c(Cl)c2)s1`, the EC50 is 16.8 µM.
